Reference: PMC10206040, “Identification of novel anti-amoebic pharmacophores from kinase inhibitor chemotypes” (Frontiers in Microbiology, 2023)
Entries after “also recorded” stand apart in the source; their conditions may differ. Read-outs that look alike come from different tables or passages of the source.

Legend:
[1] = tested on: Acanthamoeba castellanii T4 isolate (ATCC 50370) trophozoites; test: CellTiter-Glo 2.0 trophocidal assay, A. castellanii; type: cell-based; conditions: Acanthamoeba castellanii, ATCC50370, 72 h, read-out: Acanthamoeba castellanii EC50 ± SD
Source text: This isolate was purchased from American Type Culture Collection (ATCC). […] For sub-culturing, cells were mechanically harvested to detach the cells from the culture flasks.

[2] = tested on: Naegleria fowleri (ATCC 30215) trophozoites; test: microbe, parasite or virus in culture
Description: Trophozoites were routinely grown axenically at 34°C, 5% CO2, in Nelson’s complete medium (NCM) in non-vented 75 cm^2 tissue culture flasks (Olympus), until the cells were 80–90% confluent. For sub-culturing, cells were placed on ice to detach the cells from the culture flasks. […] Complete NCM media is prepared by the addition of 10% fetal bovine serum (FBS) and 100 U/mL penicillin, and 100 μg/mL streptomycin antibiotics.
Trophozoites were routinely cultured as described above and only logarithmic trophozoites were used.
All assays were incubated at each of the parasites’ representative growth temperatures, described above, for 72 h. At the 72-h time point, 25 μL of CellTiter-Glo 2.0 reagent was added to all wells of the 96-well plates by hand. The plates were protected from light and contents were mixed using an orbital shaker at 300 rpm at room temperature for 2 min to induce cell lysis. After shaking, the plates were equilibrated at room temperature for 10 min to stabilize the luminescent signal. The ATP luminescent signal (relative light units; RLUs) were measured […] with a SpectraMax I3X plate reader (Molecular Devices, Sunnyvale, CA, United States). […] Values reported are from a minimum of three biological replicates with standard deviation.

[3] = tested on: Balamuthia mandrillaris (CDC:V039; ATCC 50209) trophozoites; test: CellTiter-Glo 2.0 trophocidal assay, B. mandrillaris; type: cell-based
Source text: For sub-culturing, 0.25% Trypsin–EDTA (Gibco) cell detachment reagent was used to detach the cells from the culture flasks.

[4] = Human fetal lung fibroblast (MRC5) cell cytotoxicity assay (resazurin); conditions: human
Description: (§1) Intermediate plates were made as described, adding 95 μL of DMEM complete media to 5 μL of compound per well setting a 5% DMSO amount. Log-phase MRC5 cells were removed from a T-75 TC flask using TrypLE® Express (Thermo®) and dispersed by gentle pipetting. Cell density was adjusted to working concentration in prewarmed DMEM medium: 25,000 cells in 90 μL of culture were plated in 96-well transparent Nunclon plates and allowed to settle for 24 h at 37°C and 5% CO2. […] Plates were incubated for 48 h at 37°C and 5% CO2. At 4 h prior to fluorescence measurement, 20 μL of 500 μM resazurin solution was added.
(§2) A four-parameter equation was used to fit the dose–response curves and determination of EC50 by SigmaPlot ® 13.0 software. Assays were performed in duplicate at least twice for positive compounds, to achieve a minimal […] per dose response.

[5] = tested on: MRC5 cells; test: as above; conditions: for MRC5 TC50 ± Standard Deviation: Table S2, in µM
Description: as §1, §2

[6] = Rat skeletal muscle cell line (L6) cytotoxicity assay (resazurin); conditions: rat
Description: (§3) One hundred microliters (100 μL) per well of culture medium containing the compounds and controls were added to L6 cells previously cultured (4 × 10^3 L6 cells per well). After 72 h at 37°C the medium was exchanged, and the viable cell number was determined by resazurin (Sigma–Aldrich) reduction. 20 μl of resazurin (1.1 mg/ml) was added to each well and incubated in the dark for 2 h at 37°C.

[7] = tested on: L6 cells; test: as above; conditions: Table S2; in µM
Description: as §3

[8] = tested on: THP-1; test: Cytotoxicity assay in THP-1 (MTT); type: cell-based; conditions: Table S2, 72 h, maximal concentration 50 μM
Description: Cytotoxicity assay in TH P-1. Cellular toxicity of all compounds was determined using the colorimetric MTT-based assay after incubation at 37 °C for 72 h in the presence of increasing concentrations of compounds (final maximal concentration was 50 μM in 0.5% DMSO per well) [ 1] . The results are expressed […]
cells. Assays were performed in duplicate at least twice to achieve a minimal n=3 per dose response. […]
Cytotoxicity assay in THP-1. Cellular toxicity of all compounds was determined using the colorimetric MTT-based assay after incubation at 37 °C for 72 h in the presence of increasing concentrations of compounds (final maximal concentration was 50 μM in 0.5% DMSO per well). […] Assays were performed in duplicate at least twice to achieve a minimal n=3 per dose response.

[9] = cited from earlier work; for blood/brain ratio: 10 mg/kg I.P., 2019; for in vivo toxicity in PK study: dosed I.P. at 10 mg/kg, ref Tear et al., 2020
[10] = logarithmic trophozoites, 72 h, n = 3
[11] = Naegleria fowleri, ATCC30215, 72 h, read-out: Naegleria fowleri EC50 ± SD, logarithmic trophozoites, 72 h, n = 3 (converted)
[12] = Balamuthia mandrillaris, ATCC50209, 72 h, logarithmic trophozoites, 72 h, n = 3, read-out: Balamuthia mandrillaris EC50 ± SD
[13] = MRC5 cells (human fetal lung fibroblasts)
[14] = L6 cells (rat skeletal muscle cell line)
[15] = Naegleria fowleri, 72 h, read-out: Naegleria fowleri EC50 ± SD, logarithmic trophozoites, 72 h, n = 3 (converted)
[16] = Balamuthia mandrillaris, ATCC50209, 72 h, read-out: Balamuthia mandrillaris EC50 ± SD

| EC50 [2, 11] [µM] | SMILES | EC50 [1, 10] [µM] | EC50 [3, 12] [µM] | CC50 at 48 h [4, 13] [µM] | MRC5 TC50 ± Standard Deviation [5] | CC50 at 72 h [6, 14] [µM] | L6 TC50 ± Standard Deviation [7] | THP-1 TC50 ± Standard Deviation [8] | EC50 [2, 15] [µM] | further results |
| --- | --- | --- | --- | --- | --- | --- | --- | --- | --- | --- |
| ≤ 14 | Nc1ccnc(-c2cc3c4c(n[nH]c4c2)Nc2ccccc2O3)n1 [Compound 1a] | 3.8 ± 0.46 | 17 ± 3 | > 50 | > 50 | 32 ± 2.5 | 32 ± 2.5 | > 50 | – | EC50 ([2]; read-out: Naegleria fowleri EC50 ± SD, logarithmic trophozoites, 72 h, n = 3): 8.5 ± 0.34 µM |
| > 20 | FC1(F)CCN(c2nc(Nc3ccsc3)nc3[nH]cnc23)CC1 [Compound 6e] | – | – | > 50 | > 50 | > 50 | > 50 | > 50 | – | – |
| – | N#Cc1cccc(-c2c[nH]c3ncc(-c4cnn(C5CCNCC5)c4)cc23)c1 [Compound 4c] | > 20 | – | – | – | – | – | – | – | brain exposure in PK ([9]; ref Klug et al., 2021): negligible brain exposure |
| > 20 | Cn1nc2c3c(cc(-c4ccnc(N)n4)cc31)Oc1ccccc1N2 [Compound 1e] | > 20 | 14 ± 0.29 | > 50 | > 50 | > 50 | > 50 | > 50 | – | blood/brain ratio ([9]; 0.5 h, ref Klug et al.): 2.4; blood/brain ratio ([9]; 4 h, ref Klug et al.): 2.1 |
| > 20 | O=C(N[C@H](CO)c1ccccc1)c1ccc(-c2c[nH]c3ncccc23)nc1 [Compound S15, (S)-N-(2-Hydroxy-1-phenylethyl)-6-(1H-pyrrolo[2,3-b]pyridin-3-yl)nicotinamide] | > 20 | > 20 | – | > 50 | – | > 50 | 26 ± 2.0 | – | – |
| > 20 | CCOc1cc(-c2ccnc(N)n2)cc2c1c(N)nn2C [Compound 1d] | 12 ± 8.3 | 9.49 ± 0.23 | > 50 | > 50 | > 17 | > 17 ± 0.052 | > 50 | – | EC50 ([3]; logarithmic trophozoites, 72 h, n = 3, read-out: Balamuthia mandrillaris EC50 ± SD): 9.5 ± 0.23 µM |
| – | CN(C)Cc1ccc(-c2cc3c(-c4cnn(C)c4)ccnc3[nH]2)cc1 [Compound 5c] | – | – | – | 14 ± 2.4 | – | < 0.62 | < 0.62 | 5.6 ± 0.29 | EC50 ([3]; Balamuthia mandrillaris, ATCC50209, 72 h, read-out: Balamuthia mandrillaris EC50 ± SD, logarithmic trophozoites, 72 h, n = 3 (converted)): 12 ± 0.09 µM; CC50 at 48 h [4]: 11 ± 0.9 µM; CC50 at 72 h [6]: < 0.62 µM |
| – | Cn1cc(Nc2nc(NCC(F)(F)F)c3nc[nH]c3n2)cn1 [Compound S21] | > 20 | > 20 | – | 50 | – | 28 ± 1.4 | > 50 | > 20 | – |
| > 20 | Cn1cc(-c2cnc3[nH]cc(-c4cncc(C#N)c4)c3c2)cn1 [Compound 4e] | – | 8.3 ± 1.3 | > 50 | > 50 | – | > 50 | > 50 | – | – |
| – | c1cc(-c2c[nH]c3ncc(-c4cnn(C5CCOCC5)c4)cc23)ccn1 [Compound S31] | > 20 | > 20 | – | 7.9 ± 2.3 | – | 5.7 ± 0.49 | 5.8 ± 0.43 | > 20 | – |
| – | c1cncc(Nc2nccc(-c3cnn4ncccc34)n2)c1 [Compound 2b] | – | – | > 50 | – | – | – | – | 0.3 ± 0.21 | EC50 [1]: 1.5 ± 0.12 µM; EC50 [3, 16]: 5 ± 0.1 µM; in vivo toxicity in PK study ([9]; 10 mg/kg): in vivo toxicity was observed; also recorded: acute toxicity was seen |
| – | CNc1nccc(-c2cc3c4c(n[nH]c4c2)Nc2ccccc2O3)n1 [Compound 1c] | 3.3 ± 0.31 | 1.9 ± 1.3 | > 50 | > 50 | 6.3 ± 0.55 | 6.3 ± 0.55 | 5.0 ± 0.11 | – | selectivity versus MRC5 ([2]; N. fowleri EC50 versus MRC5 cells): > 10 fold; selectivity versus THP-1 ([2]; N. fowleri EC50 versus THP-1 cells): > 10 fold |
| – | Cc1ccc(Nc2nccc(-c3cnn4ncccc34)n2)cn1 [Compound 2d] | – | – | > 50 | – | – | – | – | 0.43 ± 0.13 | EC50 [1]: 0.92 ± 0.3 µM; EC50 [3, 16]: 1.6 ± 0.1 µM; in vivo toxicity in PK study [9]: acute toxicity was seen |
| – | Cn1cc(Nc2nc(NCCCC(F)(F)F)c3nc[nH]c3n2)cn1 [Compound S24] | > 20 | > 20 | – | 50 ± 0 | – | > 50 | > 50 | > 20 | – |
| – | N#Cc1cccc(-c2n[nH]c3ncc(-c4cnn(C5CCOCC5)c4)cc23)c1 [Compound 4a] | 11 ± 9 | 3.3 ± 0.62 | > 50 | > 50 | 2.8 ± 0.92 | 2.8 ± 0.92 | > 50 | – | – |
| – | Cc1c(-c2cnn(C3CCOCC3)c2)cnc2[nH]cc(-c3cccc(C#N)c3)c12 [Compound 4b] | 11 ± 2.3 | 1 ± 0.12 | > 50 | > 50 | 11 ± 1.5 | 11 ± 1.5 | > 50 | – | activity/toxicity against MRC5 cells (in words) ([5]; up to 50 μM): not toxic |
| – | Cn1cc(Nc2nc(N3CCOCC3)c3nc[nH]c3n2)cn1 [Compound S22] | > 20 | > 20 | – | 19 ± 0.42 | – | 11 ± 1.0 | 19 ± 0.52 | > 20 | – |
